Source: patent publication US6323001A, “Increasing the trehalose content of organisms by transforming them with combinations of the structural genes for trehalose synthase” (BTG International Ltd., priority 1994, dated 2001)
Like-named read-outs stand apart in the source and are kept apart here.

Key:
extract of X2180 yeast = assay: Synthesis of [14C]-trehalose from [U-14C]-G6P by extract of wild-type yeast; format: biochemical, S. cerevisiae; conditions: 2.5 mM ADPG
[1] = biological target: T1, Tre6P synthase activity of truncated trehalose synthase (Saccharomyces cerevisiae, UniProt Q00764); assay: Tre6P synthase assay of truncated trehalose synthase; format: biochemical, baker's yeast
T1 construct: contained the 57 kDa short chain; made in house; host or cells: baker's yeast (native enzyme, proteolytically truncated during purification)
T1 sequence (Q00764 1-495): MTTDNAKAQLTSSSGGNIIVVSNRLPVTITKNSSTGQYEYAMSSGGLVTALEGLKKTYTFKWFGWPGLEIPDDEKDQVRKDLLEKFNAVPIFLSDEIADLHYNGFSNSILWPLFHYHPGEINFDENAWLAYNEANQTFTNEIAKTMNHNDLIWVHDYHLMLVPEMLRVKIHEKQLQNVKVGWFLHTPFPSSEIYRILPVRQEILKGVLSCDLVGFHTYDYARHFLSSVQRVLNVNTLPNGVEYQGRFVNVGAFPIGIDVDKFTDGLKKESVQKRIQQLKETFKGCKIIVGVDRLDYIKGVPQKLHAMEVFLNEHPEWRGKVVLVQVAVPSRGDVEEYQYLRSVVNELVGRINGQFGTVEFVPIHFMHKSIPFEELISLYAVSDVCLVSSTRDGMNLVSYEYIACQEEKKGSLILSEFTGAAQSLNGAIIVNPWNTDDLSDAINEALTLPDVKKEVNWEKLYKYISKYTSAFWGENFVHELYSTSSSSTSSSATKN
Protocol: (§1) With microbial materials, Tre6Pase and Tre6P synthase standard assays and other kinetic measurements were made as described by Londesborough & Vuorio [(1991) loc. cit.] except that the standard Tre6P synthase assay mixture contained 5 mM F6P unless stated otherwise.
(§2) Truncated trehalose synthase containing the short (57 kDa) chain and the 86 and 93 kDa long chain fragments was prepared according to the method of Londesborough & Vuorio (1991) loc. cit.] for proteolytically activated TPS/P complex. Tre6P synthase and Tre6Pase activities were assayed as described by Londesborough & Vuorio [(1991) loc. cit.]. [N-ethyl-1-^14C]-maleimide (ethyl-labelled NEM; 40 mCi/mmol) was NEC-454 from New England Nuclear. N-ethyl-[2,3-^14 C]-maleimide (ring-labelled NEM; 6 mCi/mmol) was CFA 293 from Amersham International. Both were obtained as solutions in n-pentane and the manufacturer's stated specific activities were assumed to be correct. Unlabelled N-ethyl-maleimide (NEM) was E-3876 from Sigma. It was dissolved in 25 mM HEPES pH 7.0 immediately before use and standardized by absorption measurements at 305 nm, assuming an E^mM of 0.62.
(§3) Truncated trehalose synthase was prepared as described by Londesborough & Vuorio [(1991) loc. cit.] and contained the 57 kDa short chain and 86 and 93 kDa fragments of the long chain. Intact trehalose synthase was prepared as in Example 1. Kinetic assays were done at 30° C. as described in General Methods and Materials.

[2] = biological target: Tre6Pase activity of truncated trehalose synthase (Saccharomyces cerevisiae, UniProt P31688); assay: Tre6Pase assay of truncated trehalose synthase; format: biochemical, baker's yeast
Protocol: as §1, §2
(§4) In one experiment, 2.0 μl of 2.4 mM ethyl-labelled NEM was mixed with 150 μl of gel-filtered enzyme and incubated at 23° C. Samples (10 μl) taken at various times up to 190 min were mixed with 60 μl of Laemmli sample buffer (the mercapto-ethanol in this buffer should destroy residual NEM), boiled for 5 min and subjected to SDS-PAGE. At closely similar times (and also at 23 h) other samples (10 μl) were mixed with 100 μl (for Tre6P synthase) or 700 μl (for Tre6Pase) of 5 mg BSA/ml 25 mM HEPES pH 7.0 containing 2 mM MgCl2, 1 mM EDTA, 0.2 M NaCl and 1 mM dithiothreitol (the dithiothreitol should destroy residual NEM) and assayed for Tre6P synthase and Tre6Pase.
as §3

[3] = biological target: T2, Tre6P synthase activity of intact trehalose synthase (Saccharomyces cerevisiae, UniProt Q00764); assay: Tre6P synthase assay of intact trehalose synthase; format: biochemical, baker's yeast; conditions: 5 or 2.5 mM; 1 mM F6P at 1.3 mM phosphate
T2 construct: Intact trehalose synthase was purified from commercial baker's yeast; made in house; host or cells: commercial baker's yeast (native enzyme purified, not recombinant)
Protocol: as §1
Removal of the N-terminal 325 or so amino acids from the 123 kDa long chain of intact trehalose synthase by treatment with trypsin in vitro produces an enzyme with catalytic properties like those of the truncated enzyme purified by Londesborough & Vuorio [(1991) loc. cit.]. In one experiment intact trehalose synthase (0.28 Tre6P synthase units, ≈9.4 μg) was incubated with or without 0.5 μg of trypsin at 30° C. in 250 μl of 13 mM HEPES pH 7.0 containing 1 mM MgCl2, 0.5 mM EDTA, 0.5 mM dithiothreitol, 0.2 M NaCl and 0.5 mM benzamidine. Its Tre6P synthase activity was determined at intervals using standard assay mixtures (containing 5 mM F6P) containing no or 4 mM K phosphate pH 6.8, and samples were prepared for SDS-PAGE analysis immediately before and 48 min after addition of the trypsin.
as §3

[4] = biological target: T3, 93 and 86 kDa long chain fragments of truncated trehalose synthase (Saccharomyces cerevisiae, UniProt P38427); assay: Labelling of truncated trehalose synthase with [14C]-NEM; format: binding, baker's yeast; conditions: for NEM entered the long chain fragments: 32 μM ethyl-labelled NEM; for NEM incorporated into long chain fragments at complete loss of Tre6Pase: per mole of truncated trehalose synthase, ring- and ethyl-labelled NEM
T3 construct: 93 kDa band may also hold TPS2 fragment
Protocol: as §4
After electrophoresis, the upper (cathode) buffer, containing most of the added radioactivity, was completely removed before disassembling the apparatus. The gel was then fixed, stained and destained as described by Laemmli [(1970) Nature, London 227, 680-685] and dried. […] The Coomassie blue stained bands and adjacent, empty areas (as blanks) were cut out of the dried gel (in later experiments, they were cut from undried gels), broken up and extracted overnight with 1 ml of 5% SDS in pre-blanked scintillation vials. Then 10 ml of a toluene/Triton X100-based scintillant was added, and the tubes were repeatedly counted using a wide energy window to minimise quench effects. After 10 h constant counting levels were reached. Excess radioactivity was calculated by subtracting a blank value obtained from empty regions of the gel.

T2 sequence (P31688 whole entry, one chain of several): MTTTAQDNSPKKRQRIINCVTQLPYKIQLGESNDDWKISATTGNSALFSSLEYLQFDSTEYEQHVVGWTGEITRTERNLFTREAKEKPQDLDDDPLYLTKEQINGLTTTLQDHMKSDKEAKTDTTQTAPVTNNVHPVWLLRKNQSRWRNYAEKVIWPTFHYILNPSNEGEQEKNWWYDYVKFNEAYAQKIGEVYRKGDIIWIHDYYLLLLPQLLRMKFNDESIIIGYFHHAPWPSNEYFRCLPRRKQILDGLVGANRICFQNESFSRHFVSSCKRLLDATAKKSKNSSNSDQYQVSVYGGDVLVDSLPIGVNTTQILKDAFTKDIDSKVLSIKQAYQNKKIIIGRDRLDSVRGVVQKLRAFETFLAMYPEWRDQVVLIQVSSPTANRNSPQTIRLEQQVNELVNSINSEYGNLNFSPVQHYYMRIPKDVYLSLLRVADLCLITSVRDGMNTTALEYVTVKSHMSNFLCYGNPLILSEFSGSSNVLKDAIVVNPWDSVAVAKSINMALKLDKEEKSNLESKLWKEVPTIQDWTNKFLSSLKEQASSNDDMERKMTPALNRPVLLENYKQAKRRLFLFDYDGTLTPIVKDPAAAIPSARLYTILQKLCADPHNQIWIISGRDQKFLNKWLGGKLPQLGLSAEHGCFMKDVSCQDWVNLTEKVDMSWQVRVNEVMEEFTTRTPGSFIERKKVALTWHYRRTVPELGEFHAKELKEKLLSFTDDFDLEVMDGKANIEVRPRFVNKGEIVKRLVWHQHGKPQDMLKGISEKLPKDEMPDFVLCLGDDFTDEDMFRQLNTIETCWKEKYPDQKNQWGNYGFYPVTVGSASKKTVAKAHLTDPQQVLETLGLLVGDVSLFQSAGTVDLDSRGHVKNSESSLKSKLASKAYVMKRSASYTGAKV
T2 sequence (P38427 whole entry, one chain of several, further chain): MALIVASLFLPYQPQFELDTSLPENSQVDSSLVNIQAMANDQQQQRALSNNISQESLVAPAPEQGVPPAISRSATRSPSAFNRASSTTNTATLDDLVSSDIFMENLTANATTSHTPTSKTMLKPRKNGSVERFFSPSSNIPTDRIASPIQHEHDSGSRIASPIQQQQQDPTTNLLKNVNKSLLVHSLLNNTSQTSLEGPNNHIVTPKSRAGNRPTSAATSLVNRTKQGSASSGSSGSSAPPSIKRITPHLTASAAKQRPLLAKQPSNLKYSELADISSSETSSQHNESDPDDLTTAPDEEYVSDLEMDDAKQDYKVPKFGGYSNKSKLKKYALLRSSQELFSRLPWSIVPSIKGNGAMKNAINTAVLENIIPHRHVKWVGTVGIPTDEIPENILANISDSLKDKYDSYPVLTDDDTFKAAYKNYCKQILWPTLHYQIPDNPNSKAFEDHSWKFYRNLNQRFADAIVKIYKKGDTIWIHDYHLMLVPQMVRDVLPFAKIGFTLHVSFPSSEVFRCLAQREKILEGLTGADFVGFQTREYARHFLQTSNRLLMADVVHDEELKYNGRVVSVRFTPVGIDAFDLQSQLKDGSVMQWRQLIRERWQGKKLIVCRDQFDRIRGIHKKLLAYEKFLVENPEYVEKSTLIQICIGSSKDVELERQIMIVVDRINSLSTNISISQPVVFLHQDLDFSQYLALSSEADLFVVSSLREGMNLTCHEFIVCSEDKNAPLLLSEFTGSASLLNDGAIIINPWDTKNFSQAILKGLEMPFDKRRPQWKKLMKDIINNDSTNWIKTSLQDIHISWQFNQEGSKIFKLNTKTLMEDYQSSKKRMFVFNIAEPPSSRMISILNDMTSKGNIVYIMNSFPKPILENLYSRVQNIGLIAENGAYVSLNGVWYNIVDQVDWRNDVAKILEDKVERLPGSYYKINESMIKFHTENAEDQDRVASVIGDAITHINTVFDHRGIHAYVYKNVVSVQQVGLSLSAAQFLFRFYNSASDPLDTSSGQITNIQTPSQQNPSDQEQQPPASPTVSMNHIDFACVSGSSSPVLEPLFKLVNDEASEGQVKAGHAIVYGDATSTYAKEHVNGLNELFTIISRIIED
Sequence of Tre6Pase activity of truncated trehalose synthase (P31688 whole entry, one chain of several, the tested form may be a part): as the sequence (P31688 whole entry, one chain of several) above
Sequence of Tre6Pase activity of truncated trehalose synthase (P38427 336-1098, one chain of several, further chain): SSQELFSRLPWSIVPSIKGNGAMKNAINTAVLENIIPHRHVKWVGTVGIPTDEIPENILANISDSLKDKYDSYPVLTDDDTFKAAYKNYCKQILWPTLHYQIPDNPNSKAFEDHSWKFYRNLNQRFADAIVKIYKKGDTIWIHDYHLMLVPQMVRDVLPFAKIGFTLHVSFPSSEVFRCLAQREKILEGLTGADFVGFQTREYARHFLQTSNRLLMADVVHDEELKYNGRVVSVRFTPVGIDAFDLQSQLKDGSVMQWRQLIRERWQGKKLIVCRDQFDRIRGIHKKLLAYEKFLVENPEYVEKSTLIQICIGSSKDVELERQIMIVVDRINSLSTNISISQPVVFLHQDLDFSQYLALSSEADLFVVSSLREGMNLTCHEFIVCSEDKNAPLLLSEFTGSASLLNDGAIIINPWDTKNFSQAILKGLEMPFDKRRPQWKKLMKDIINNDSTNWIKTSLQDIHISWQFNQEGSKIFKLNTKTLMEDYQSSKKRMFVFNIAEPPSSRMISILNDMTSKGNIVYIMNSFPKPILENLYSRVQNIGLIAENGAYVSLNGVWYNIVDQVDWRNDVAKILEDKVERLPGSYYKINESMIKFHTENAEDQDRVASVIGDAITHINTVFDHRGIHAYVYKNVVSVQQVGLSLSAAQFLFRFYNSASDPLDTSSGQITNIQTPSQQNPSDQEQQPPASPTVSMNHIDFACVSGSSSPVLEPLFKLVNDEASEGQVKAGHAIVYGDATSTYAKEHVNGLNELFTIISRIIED
T3 sequence (P38427 336-1098): as the sequence (P38427 336-1098, one chain of several, further chain) above

## Nc1ncnc2c1ncn2[C@@H]1O[C@H](COP(=O)(O)OP(=O)(O)O[C@H]2O[C@H](CO)[C@@H](O)[C@H](O)[C@H]2O)[C@@H](O)[C@H]1O [ADPG, adenosine 5'-diphosphoglucose]
Extract of X2180 yeast
  effect on rate of appearance of radioactivity: did not cause any significant increase

## O=C(O)c1cc(SSc2ccc([N+](=O)[O-])c(C(=O)O)c2)ccc1[N+](=O)[O-] [DTNB, dithiodinitro-benzoate]
[1]; 10 min, 0,9 mM DTNB, 10 min, read-out: Tre6P synthase lost
  inhibition at 900 µM: < 28%
[2]; 10 min, read-out: Tre6Pase lost, 0,9 mM DTNB, 10 min
  inhibition at 900 µM: > 95%

## O=C(COP(=O)(O)O)[C@@H](O)[C@H](O)[C@H](O)CO [Fructose-1-phosphate]
[3]
  inhibition of Tre6P synthase activity: about 25%

## CCN1C(=O)C=CC1=O [NEM, N-ethyl-maleimide]
[4]; 10.5 min
  NEM entered the long chain fragments: 0.20 moles per mole (150 Kg) of enz
[4]; 190 min
  NEM entered the long chain fragments: 0.32 moles per mole (150 Kg) of enz
[4]
  NEM incorporated into long chain fragments at complete loss of Tre6Pase: less than 1 mole
[4]; listed as 14C-N-ethylmaleimide
  NEM incorporated into long chain fragments at complete loss of Tre6Pase: about 1 mole
[1]; 1.9 mM NEM, 24° C., about 0.17 mM dithiothreitol, read-out: loss of Tre6P synthase activity
  inhibition at 1900 µM: ≤ 24%
[2]; 0.175 h, read-out: initial Tre6Pase lost, 32 μM ethyl-labelled NEM, 23° C., 10.5 min
  inhibition at 32 µM: 30%
[2]; 190 min, read-out: initial Tre6Pase lost, 32 μM ethyl-labelled NEM, 23° C., 190 min
  inhibition at 32 µM: 56%
[2]; read-out: loss of Tre6Pase activity, 1.9 mM NEM, 24° C., about 0.17 mM dithiothreitol
  inhibition at 1900 µM: ≥ 98%

## O=C(COP(=O)(O)O)[C@@H](O)[C@H](O)[C@H](O)COP(=O)(O)O [fructose-1,6-bisphosphate]
[3]
  inhibition of Tre6P synthase activity: about 25%

## O=P(O)(O)OC[C@H]1O[C@@](CO)(OP(=O)(O)O)[C@@H](O)[C@@H]1O [fructose-2,6-bisphosphate]
[3]
  inhibition of Tre6P synthase activity: about 25%

## O=P(O)(O)O[C@H]1O[C@H](CO)[C@@H](O)[C@H](O)[C@H]1O [glucose-1-phosphate]
[3]
  inhibition of Tre6P synthase activity: about 25%
